Laboratory results taken from patent US11707431B2, “Dental strips for the delivery of specifically targeted antimicrobial peptides” (C3 Jian, LLC, priority 2017, dated 2023).
No end group written: not given here.

test system: MRSA; experiment: MIC against MRSA; type: cell-based; conditions: not given

Molecule	MIC
FESKILNASKELDKEKKVNTALSFNSHQDFAKAYQNGKI [PF-606]	MRSA, 50 μM
FIRKFLQKLHL [K-16]	MRSA, 25 μM
GSVIKKRRKRMAKKKHRKLLKKTRIQRRRAGK [PF-527]	MRSA, 50 μM
KFQGEFTNIGQSYIVSASHMSTSLNTGK [PF-583]	MRSA, 50 μM
MGIIAGIIKFIKGLIEKFTGK [PF-006]	MRSA, 50 μM
MRFGSLALVAYDSAIKHSWPRPSSVRRLRM [PF-672]	MRSA, 1.56 μM
NYAVVSHT [PF-209]	MRSA, 50 μM
RESKLIAMADMIRRRI [PF-545]	MRSA, 50 μM
VLPFPAIPLSRRRACVAAPRPRSRQRAS [PF-168]	MRSA, 50 μM

test system: S. mutans; experiment: not given; conditions: Streptococcus mutans

Molecule	% viability remaining [%]
TAFRLANRSATQALGK [F2/6/10-A2/6/10_C16G2]	78
TFFRLFNRSFTQALAK [G15-A15_C16G2]	47
TFFRLFNRSFTQALDK [G15-D15_C16G2]	47
TFFRLFNRSFTQALFK [G15-F15_C16G2]	29
TFFRLFNRSLTQALGK [F10-L10_C16G2]	30
TFFRLFNRSQTQALGK [F10 to Q10_C16G2]	73
TFFRLLNRSFTQALGK [F6-L6_C16G2]	43
TFFRLQNRSFTQALGK [F6 to Q6_C16G2]	79
TLFRLFNRSFTQALGK [F2-L2_C16G2]	63
TLFRLLNRSLTQALGK [F2F6F10-L2L6L10_C16G2]	26
TQFRLFNRSFTQALGK [F2 to Q2_C16G2]	47
TQFRLQNRSQTQALGK [F7/11/15 sub Q_C16G2]	93
TWFRLFNRSFTQALGK [F2-W2_C16G2]	45

test system: not given; experiment: not given; conditions: in vivo; cited from earlier work

Molecule	reduce cavities
OC[C@@H](O)[C@H](O)[C@@H](O)CO [Xylitol]	up to 80%

same assay, conditions: long-term; cited from earlier work

Molecule	long-term reduction in caries
OC[C@@H](O)[C@H](O)[C@@H](O)CO [Xylitol]	88-93%
